One experiment concerns the target Cannabinoid receptor 2 (Mus musculus, UniProt P47936). In words: Displacement of [3H]CP-55940 from mouse spleen CB2 receptor. Type of experiment: tissue-based.
The nature of experiment [1]: Selectivity for rat CB1 receptor over mouse CB2 receptor.
Another experiment concerns the target Cannabinoid receptor 1 (Rattus norvegicus, UniProt P20272). As to the kind of experiment: Displacement of [3H]CP-55940 from rat brain CB1 receptor.

Sequence of Cannabinoid receptor 2 (P47936 whole entry): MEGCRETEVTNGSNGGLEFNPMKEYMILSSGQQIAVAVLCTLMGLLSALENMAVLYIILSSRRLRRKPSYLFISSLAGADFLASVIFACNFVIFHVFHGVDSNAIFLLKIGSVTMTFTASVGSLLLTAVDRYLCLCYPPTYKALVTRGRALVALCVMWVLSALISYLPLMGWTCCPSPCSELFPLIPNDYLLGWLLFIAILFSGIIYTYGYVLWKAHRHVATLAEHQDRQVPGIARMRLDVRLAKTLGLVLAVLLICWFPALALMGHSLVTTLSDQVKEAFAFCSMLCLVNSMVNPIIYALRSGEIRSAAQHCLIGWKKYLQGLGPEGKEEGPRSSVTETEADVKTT
Sequence of Cannabinoid receptor 1 (P20272 whole entry): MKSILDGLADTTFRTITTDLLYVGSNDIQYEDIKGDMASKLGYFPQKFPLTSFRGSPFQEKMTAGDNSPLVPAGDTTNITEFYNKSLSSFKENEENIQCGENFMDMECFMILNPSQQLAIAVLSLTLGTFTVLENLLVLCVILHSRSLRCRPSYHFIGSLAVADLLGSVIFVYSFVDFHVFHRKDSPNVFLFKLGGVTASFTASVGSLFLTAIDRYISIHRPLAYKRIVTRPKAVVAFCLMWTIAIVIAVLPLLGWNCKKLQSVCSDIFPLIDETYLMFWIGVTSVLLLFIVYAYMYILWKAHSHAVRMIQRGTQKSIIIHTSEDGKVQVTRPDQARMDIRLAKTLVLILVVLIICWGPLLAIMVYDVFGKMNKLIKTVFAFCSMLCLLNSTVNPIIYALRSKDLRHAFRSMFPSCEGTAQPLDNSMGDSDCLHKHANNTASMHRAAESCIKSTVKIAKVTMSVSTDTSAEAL

Turning to `CC1=CC[C@@H]2[C@@H](C1)c1c(O)cc(C3(C#N)CCCC3)cc1OC2(C)C`, the Ki on Cannabinoid receptor 2 stood at 25.2 nM; at Cannabinoid receptor 1, 27.9 nM. The Ratio Ki in experiment [1] amounted to 1.1.

Take `C=C(C)[C@@H]1CCC(C)=C[C@H]1c1c(O)cc(C2(C#N)CCCCC2)cc1O`: the values for the Ki on Cannabinoid receptor 2 and at Cannabinoid receptor 1 were 111 nM and 319 nM, respectively. The Ratio Ki in experiment [1] is 2.9.

In the case of `CC1=CC[C@@H]2[C@@H](C1)c1c(O)cc(C34CC5CC(CC(C5)C3)C4)cc1OC2(C)C`, the Ratio Ki in experiment [1] was determined as 0.1.

For `CC1=CC[C@@H]2[C@@H](C1)c1c(O)cc(-c3cccc4ccccc34)cc1OC2(C)C`, the figures for the Ki at Cannabinoid receptor 2 and on Cannabinoid receptor 1 were 9.39 nM and 11.7 nM, respectively. In experiment [1], the Ratio Ki was determined as 1.2.

As to `C=C(C)[C@@H]1CCC(C)=C[C@H]1c1c(O)cc(-c2cccc3ccccc23)cc1O`, the Ki at Cannabinoid receptor 2 turned out to be 222 nM; at Cannabinoid receptor 1 it was 754 nM. Moreover, the Ratio Ki in experiment [1] came out at 3.4.

With `CCCCCC#Cc1cc(O)c2c(c1)OC(C)(C)[C@@H]1CC=C(C)C[C@@H]21`, in experiment [1], the Ratio Ki stood at 0.2.

For the compound `CC1=CC[C@@H]2[C@@H](C1)c1c(O)cc(C3(C#N)CCCCC3)cc1OC2(C)C`, the results for the Ki on Cannabinoid receptor 2 and at Cannabinoid receptor 1 were 3.86 nM and 8.26 nM, respectively. Also, the Ratio Ki in experiment [1] came out at 2.1.

For the compound `CC1=CC[C@@H]2[C@@H](C1)c1c(O)cc(-c3ccc(C)cc3)cc1OC2(C)C`, the Ki is 71.8 nM at Cannabinoid receptor 2 and 95.5 nM at Cannabinoid receptor 1. In addition, in experiment [1], the Ratio Ki turned out to be 1.3.

`CCCc1ccc(-c2cc(O)c3c(c2)OC(C)(C)[C@@H]2CC=C(C)C[C@@H]32)cc1`: the Ki was 108 nM on Cannabinoid receptor 2 and 57.8 nM on Cannabinoid receptor 1. Further, the Ratio Ki in experiment [1] amounted to 0.5.

As to `CCc1ccc(-c2cc(O)c3c(c2)OC(C)(C)[C@@H]2CC=C(C)C[C@@H]32)cc1`, the values for the Ki at Cannabinoid receptor 2 and at Cannabinoid receptor 1 were 51.7 nM and 119 nM, respectively. Besides, the Ratio Ki in experiment [1] is 2.3.

Consider `C=C(C)[C@@H]1CCC(C)=C[C@H]1c1c(O)cc(-c2ccc(C)cc2)cc1O`, for which the Ki was 374 nM on Cannabinoid receptor 2 and 638 nM on Cannabinoid receptor 1. Also, the Ratio Ki in experiment [1] was 1.7.

For `CCCCCc1cc(O)c2c(c1)OC(C)(C)[C@@H]1CC=C(C)C[C@@H]21`, in experiment [1], the Ratio Ki came out at 1.2.

In the case of `C=C(C)[C@@H]1CCC(C)=C[C@H]1c1c(O)cc(C2(C#N)CCCC2)cc1O`, the Ki at Cannabinoid receptor 2 stood at 105 nM; on Cannabinoid receptor 1 it was 255 nM. The Ratio Ki in experiment [1] came out at 2.4.

The record behind these values is ChEMBL document CHEMBL1146054, “Structural modifications of the cannabinoid side chain towards C3-aryl and 1',1'-cycloalkyl-1'-cyano cannabinoids” (Bioorg Med Chem Lett, 2006).
